Reference: patent US20130190275A1, “COMBINED THERAPIES OF ANTIPSYCHOTIC DRUGS AND TETRACYCLINES IN THE TREATMENT OF PSYCHIATRIC DISORDERS” (MOR RESEARCH APPLICATIONS LTD., priority 2006, published 2013)

What was measured:
[1] = test system: patients who experience first psychotic episode; experiment: Calgary Depression Scale for Schizophrenia, adjuvant study; format: in vivo, human; conditions: atypical antipsychotic drug+minocycline 200 mg/day vs +placebo; p=0.099, n.s.
Procedure: The study was carried out in patients who experience first psychotic episode, and has followed the patient for a total duration of 6 months. As the study examines Minocycline as an adjuvant drug, the sample includes patients receiving one of the following atypical anti-psychotic drugs: Risperdal, Zyprexa, Geodon, Seroquel, and Leponex. […] Initial evaluation included the following clinical measures: • SCID (for reliability of diagnosis) • CGI (Clinical Global Impression) • PANSS (Positive and Negative Syndrome Scale for Schizophrenia) • SANS (Scale for the Assessment of Negative Symptoms) • Calgary Depression Scale for Schizophrenia • GAF • GRAF • Insight and Treatment Attitudes Questionnaire • QLS (Quality of Life Scale) • Multinomah Community Ability Scale • Extrapyramidal Side Effects Scale. Minocycline was given as an add-on therapy. […] Clinical status was evaluated by the aforementioned scales at the onset of the study, every week for the first 6 weeks, and then once a month for the rest of the study period. Cognitive capabilities were assessed by the neuropsychological battery of tests according to the following schedule: upon initiation of the study (referred to as visit 1 in FIGS. 5-8), 3 months (referred to as visit 2 in FIGS. 5-8), and 6 months (referred to as visit 3 in FIGS. 5-8) after the start of the study. […]

MK801 treated rats = experiment: Habituation of the Acoustic Startle Response (ASR), MK801 animal model; format: in vivo, rat
Procedure: Acoustic Startle Response (ASR) and Pre-Pulse Inhibition (PPI): Both experimental paradigms were performed in a room that was adjacent to the laboratory facilities and the animal stall and that was not used for other experiments. The animals were tested in squad of two with startle chambers counterbalanced across the different experimental groups. Startle response and prepulse inhibition were measured using two ventilated startle chambers (SR-LAB system, San Diego Instruments, San Diego, Calif.). Each chamber consisted of a Plexiglas cylinder resting on a platform inside a sound-attenuated, ventilated chamber. A high-frequency loudspeaker inside the chamber produced both a continuous broadband background noise of 70 dB and the various acoustic stimuli. Movement inside the tube was detected by a piezoelectric accelerometer below the frame. The amplitude of the whole body startle to an acoustic pulse was defined as the average of 100 one-msec accelerometer readings collected from pulse onset. These signals were then digitized and stored by a computer. Sound levels within each test chamber were measured routinely using a sound level meter (Radio Shack) to ensure consistent presentation. The SR-LAB calibration unit was used routinely to ensure consistent stabilimeter sensitivity between test chambers and over time (Swerdlow and Geyer, 1998, Schizophrenia Bulletin, 24(2), 285-301).
Fifteen minutes before the behavioral procedures conducted at the fourth day, the subject was injected i.p. with an 0.1 mg/kg dose of MK801 or saline, for a total volume of 1 ml per kg of body weight. Next, the subjects passed the three behavioral procedures, described in the following paragraphs.
ASR and PPI were measured using two startle chambers, with each chamber consisting of a Plexiglas cylinder resting on a platform inside a sound-attenuated, ventilated chamber (see also materials section). The animals were tested in pairs with startle chambers counterbalanced across the different experimental groups.
The ASR test measured the ability of the animal to habituate to repetitive loud pulses of noise. […] Movement inside the tube was detected by a piezoelectric accelerometer below the frame. The amplitude of the whole body startle to an acoustic pulse was defined as the average of 100 one-msec accelerometer readings collected from pulse onset. […]
Acoustic Startle Response (ASR): The decrease in ASR in the groups was calculated as the percent of amplitude decrease between the mean of the first five amplitude values and the mean of the last 25 amplitude values.
Percent habituation=100×[(average startle amplitude in Block 1)−(average startle amplitude in Block 5)/(average startle amplitude in Block 1)]. Results were analyzed by two-way ANOVA a between-subject measure of ‘group’ (treatment group).

[2] = test system: patients who experience first psychotic episode; experiment: CANTAB Spatial Recognition Memory (SRM), adjuvant study; format: in vivo, human; conditions: atypical antipsychotic drug+minocycline 200 mg/day vs +placebo; time x group p<0.01
Procedure: The study was carried out in patients who experience first psychotic episode, and has followed the patient for a total duration of 6 months. As the study examines Minocycline as an adjuvant drug, the sample includes patients receiving one of the following atypical anti-psychotic drugs: Risperdal, Zyprexa, Geodon, Seroquel, and Leponex. […] In addition, the subjects were assessed by a battery of computerized neuropsychological tests (CANTAB—Cambridge Neuropsychological Test Automated Battery), measuring attention, memory, and planning. Memory was tested using spatial and pattern recognition and spatial span tasks of the CANTAB. Minocycline was given as an add-on therapy. Prior to randomization into minocycline/placebo adjuvant treatment, a preliminary (lead-in phase) screening phase of placebo treatment was undertaken: Placebo was given as an adjuvant to all patients for two weeks. […] Clinical status was evaluated by the aforementioned scales at the onset of the study, every week for the first 6 weeks, and then once a month for the rest of the study period. Cognitive capabilities were assessed by the neuropsychological battery of tests according to the following schedule: upon initiation of the study (referred to as visit 1 in FIGS. 5-8), 3 months (referred to as visit 2 in FIGS. 5-8), and 6 months (referred to as visit 3 in FIGS. 5-8) after the start of the study. […]

CN(C)c1ccc(O)c2c1C[C@H]1C[C@H]3[C@H](N(C)C)C(O)=C(C(N)=O)C(=O)[C@@]3(O)C(O)=C1C2=O [minocycline]
Total Calgary Score [1]: tended to reach greater improvement | percent habituation of the startle response (% habituation) (MK801 treated rats; drug alone (no MK801) vs saline treated animals): no effect on habituation of ASR | percent habituation of the startle response (% habituation) (MK801 treated rats; drug+MK801 0.1 mg/kg i.p., minocycline 35 mg/kg x 3 days pretreatment, haloperidol 0.4 mg/kg i.p.): able to prevent the deficits induced by MK801 | SRM percent of correct responses [2]: kept relatively steady scores
